According to publication PMC3206013, “Unique Interplay between Sugar and Lipid in Determining the Antigenic Potency of Bacterial Antigens for NKT Cells” (PLoS Biology, 2011):
Where a chain is given by its changes, count along the chain named.

What was measured:
Test in all cases: SPR loading efficiency, L363 Fab on immobilised loaded CD1d
Assay type in all cases: binding
[1] = biological target: T1, mCD1d (birA-tag mCD1d/β2m) (Mus musculus, UniProt P11609, V167L); details: 16 h with 1 µg/ml α-GalCer; WT set at 100%
T1 construct: gene Cd1d1; soluble glycosylated CD1d/β2m heterodimer, birA tag, biotinylated; with Beta-2-microglobulin
T1 sequence (P11609 19-297 V167L): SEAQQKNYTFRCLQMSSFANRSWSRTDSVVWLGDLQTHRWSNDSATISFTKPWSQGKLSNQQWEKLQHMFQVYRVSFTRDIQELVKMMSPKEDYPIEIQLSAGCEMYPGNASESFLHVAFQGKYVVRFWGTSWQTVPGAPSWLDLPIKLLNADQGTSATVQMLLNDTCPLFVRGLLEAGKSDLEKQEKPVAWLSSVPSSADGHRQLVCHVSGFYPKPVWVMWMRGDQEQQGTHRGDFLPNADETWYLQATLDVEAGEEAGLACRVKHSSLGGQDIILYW
T1 sequence (P01887 21-119 partner): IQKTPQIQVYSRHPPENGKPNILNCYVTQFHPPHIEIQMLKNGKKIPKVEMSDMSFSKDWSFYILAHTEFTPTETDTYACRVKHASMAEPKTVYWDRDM

[2] = biological target: T2, mCD1d (birA-tag mCD1d/β2m) (Mus musculus, UniProt P11609, L168V); details: 16 h with 1 µg/ml α-GalCer; WT set at 100%
T2 construct: gene Cd1d1; soluble glycosylated CD1d/β2m heterodimer, birA tag, biotinylated; with Beta-2-microglobulin
T2 sequence (P11609 19-297 L168V): T1 sequence (P11609 19-297 V167L) with L149V, L150V
T2 sequence (P01887 21-119 partner): T1 sequence (P01887 21-119 partner)

[3] = biological target: T3, mCD1d (birA-tag mCD1d/β2m) (Mus musculus, UniProt P11609, M180A); details: 16 h with 1 µg/ml α-GalCer; WT set at 100%; printed Met162Ala and M162A, Met62Ala
T3 construct: gene Cd1d1; soluble glycosylated CD1d/β2m heterodimer, birA tag, biotinylated; with Beta-2-microglobulin
T3 sequence (P11609 19-297 M180A): T1 sequence (P11609 19-297 V167L) with L149V, M162A
T3 sequence (P01887 21-119 partner): T1 sequence (P01887 21-119 partner)

[4] = biological target: T4, mCD1d (birA-tag mCD1d/β2m) (Mus musculus, UniProt P11609); details: 16 h with 1 µg/ml α-GalCer; reference set at 100%
T4 construct: gene Cd1d1; soluble glycosylated CD1d/β2m heterodimer, birA tag, biotinylated; with Beta-2-microglobulin
T4 sequence (P11609 19-297): T1 sequence (P11609 19-297 V167L) with L149V
T4 sequence (P01887 21-119 partner): T1 sequence (P01887 21-119 partner)

[5] = biological target: T5, mCD1d (birA-tag mCD1d/β2m) (Mus musculus, UniProt P11609, L102F); details: 16 h with 1 µg/ml α-GalCer; WT set at 100%; lower than WT but never below 65%
T5 construct: gene Cd1d1; soluble glycosylated CD1d/β2m heterodimer, birA tag, biotinylated; with Beta-2-microglobulin
T5 sequence (P11609 19-297 L102F): T1 sequence (P11609 19-297 V167L) with L84F, L149V
T5 sequence (P01887 21-119 partner): T1 sequence (P01887 21-119 partner)

CCCCCCCCCCCCCCCCCCCCCCCCCC(=O)N[C@@H](CO[C@H]1O[C@H](CO)[C@H](O)[C@H](O)[C@H]1O)[C@H](O)[C@H](O)CCCCCCCCCCCCCC [α-GalCer]
antigen loading efficiency, % of WT [1]: we measured the loading efficiency of α-GalCer on each mutant by surface plasmon resonance | antigen loading efficiency, % of WT [2]: we measured the loading efficiency of α-GalCer on each mutant by surface plasmon resonance | antigen loading efficiency, % of WT [3]: Leu84Phe and Met62Ala mutants showed lower levels of antigen loading compared to wild type | antigen loading efficiency, % of WT [4]: Relative antigen loading efficiencies by the mCD1d mutants as determined by surface plasmon resonance | antigen loading efficiency, % of WT [5]: Leu84Phe and Met62Ala mutants showed lower levels of antigen loading compared to wild type
